Measurements taken from patent US20150051296A1, “USE OF FATTY ACID TO REDUCE SKIN IRRITATION ASSOCIATED WITH RETINOID THERAPY” (Access Business Group Internaional LLC, priority 2013, published 2015).

Columns and labels:
[1] = system: peroxisome proliferator activated receptor (PPAR); experiment: PPAR luciferase reporter assay in stably transfected Chinese hamster ovary cells; type: cell-based; details: about 0 to about 100 μg/mL, FIG. 5
Experimental: Chinese hamster ovary cells were stably transfected with peroxisome proliferator activated receptor (PPAR) construct and luciferase reporter vector. […] The response was measured in relative light units (RLUs).

[2] = system: retinoic acid response element (RARE) construct; experiment: RARE reporter assay in stably transfected human kidney cells; type: cell-based; details: oleic acid about 0, 25, 50, 100, 200 μM, FIG. 3
Experimental: Human kidney cells were stably transfected with a retinoic acid response element (RARE) construct. The transfected cells were exposed to increasing amounts of retinoic acid (from about 0.005 μM to about 10 μM) in the presence of increasing amounts of oleic acid (about 0 μM, about 25 μM, about 50 μM, about 100 μM, and about 200 μM), and the response was measured in relative light units (RLUs).

For CCCCCCCC/C=C\CCCCCCCC(=O)O [oleic acid], which “response (RLUs) of PPAR-transfected cells” value [1] is on record?
Its value is “responded in a dose dependent manner”.

And the “effect of the fatty acid on retinoic acid activation of the retinoic acid receptor” value [2]?
The value was “did not affect retinoic acid activation of the retinoic acid receptor”.
